These results are taken from PubChem BioAssay (NCI).

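Compound exposure: 48 hours, 5 concentrations, 96-well plates. At the TGI there is no net growth.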

Some test systems named below: CAKI-1 renal; HOP-92 NSCLC; HOP-62 NSCLC; LOX IMVI melanoma; EKVX NSCLC; UO-31 renal; NCI/ADR-RES ovarian; HCT-116 colon; A549 NSCLC; BT-549 breast; OVCAR-8 ovarian; SK-OV-3 ovarian; T-47D breast; A498 renal; SF-539 CNS; SNB-75 CNS; RPMI-8226 leukemia; HCC-2998 colon; COLO 205 colon; UACC-257 melanoma.
Assay in all cases: inhibition of tumour cell growth, NCI panel, 48 h

Regarding `C=CCN1CCC(c2cc(C(=O)OCC)[nH]c2-c2cc(C)no2)C1=O` (stereo not given), the TGI with CAKI-1 renal, in the assay with HOP-92 NSCLC, in the assay on HOP-62 NSCLC, in the assay with LOX IMVI melanoma, with EKVX NSCLC and with UO-31 renal was above 100 µM in each case. Moreover, the TGI in the assay on NCI/ADR-RES ovarian, in the assay with HCT-116 colon, in the assay on A549 NSCLC, in the assay on BT-549 breast, in the assay on OVCAR-8 ovarian and in the assay with SK-OV-3 ovarian was above 100 µM each time. Moreover, the TGI with T-47D breast, with A498 renal, with SF-539 CNS, in the assay on SNB-75 CNS, in the assay with RPMI-8226 leukemia and in the assay on HCC-2998 colon was above 100 µM throughout. The TGI in the assay with COLO 205 colon and in the assay with UACC-257 melanoma was above 100 µM throughout.
In the case of `O=[N+]([O-])/C(Cl)=C(/C(Cl)=C(Cl)Cl)N1CCOCC1`, the TGI in the assay with CAKI-1 renal was determined as 12.7 µM; in the assay on HOP-92 NSCLC it was 4.88 µM; with HOP-62 NSCLC it was 2.5 µM; in the assay with LOX IMVI melanoma it was 17.3 µM; in the assay on EKVX NSCLC, 21.6 µM; in the assay on UO-31 renal, 12.8 µM. In addition, the TGI in the assay with NCI/ADR-RES ovarian stood at 14.9 µM; with HCT-116 colon, 7.51 µM; with A549 NSCLC, 15.6 µM; with BT-549 breast, 8.86 µM; in the assay on OVCAR-8 ovarian, 11.9 µM; with SK-OV-3 ovarian, 27.3 µM. For the same compound, the TGI in the assay on T-47D breast stood at 9.36 µM; with A498 renal it was 7.79 µM; in the assay with SF-539 CNS, 9.05 µM; with SNB-75 CNS it was 17.9 µM; with RPMI-8226 leukemia, 6.58 µM; in the assay on HCC-2998 colon, 7.52 µM. For the same compound, the TGI is 5.45 µM in the assay on COLO 205 colon and 9.3 µM in the assay with UACC-257 melanoma.
For the compound `CC(C)(C)O/N=C/c1cc(NC(=S)c2ccsc2)ccc1Cl`, the TGI was found to be 30.2 µM with CAKI-1 renal; 37.7 µM in the assay with HOP-92 NSCLC; 29.4 µM in the assay on HOP-62 NSCLC; 30.7 µM with LOX IMVI melanoma; 41.1 µM with EKVX NSCLC; 24.6 µM in the assay on UO-31 renal. Further, the TGI in the assay with NCI/ADR-RES ovarian stood at 33.9 µM; with HCT-116 colon, 26.5 µM; in the assay with A549 NSCLC, 63.8 µM; with BT-549 breast, 27 µM; in the assay on OVCAR-8 ovarian, 29.7 µM; in the assay with SK-OV-3 ovarian it was 46.8 µM. Moreover, the TGI in the assay with T-47D breast amounted to 16.1 µM; in the assay with A498 renal it was 24.9 µM; in the assay with SF-539 CNS, 37 µM; in the assay on SNB-75 CNS it was 77.4 µM; in the assay on RPMI-8226 leukemia, 12.2 µM; in the assay with HCC-2998 colon, 27.6 µM. The values for the TGI with COLO 205 colon and in the assay with UACC-257 melanoma were 28.3 µM and 25.2 µM, respectively.
With `CC(C)[Si]1(C(C)C)OCC2OC(n3ccc(=O)[nH]c3=O)C([Se]c3ccccc3)C2O[Si](C(C)C)(C(C)C)O1` (stereo not given), the TGI in the assay on CAKI-1 renal was found to be 24.3 µM; in the assay on HOP-92 NSCLC, 13 µM; in the assay with HOP-62 NSCLC, 25.2 µM; with LOX IMVI melanoma, 2.45 µM; in the assay with EKVX NSCLC it was 17.5 µM; in the assay with UO-31 renal it was 21.5 µM. Further, the TGI was determined as 26.7 µM with NCI/ADR-RES ovarian; 7.16 µM in the assay on HCT-116 colon; 22.1 µM in the assay on A549 NSCLC; 23.7 µM in the assay with BT-549 breast; 10.7 µM with OVCAR-8 ovarian; 31.2 µM with SK-OV-3 ovarian. Also, the TGI with T-47D breast amounted to 19.9 µM; in the assay with A498 renal, 18.9 µM; in the assay on SF-539 CNS, 20.7 µM; in the assay on SNB-75 CNS it was 2.42 µM; in the assay with RPMI-8226 leukemia, 10.9 µM; in the assay with HCC-2998 colon, 3 µM. The TGI in the assay with COLO 205 colon was found to be 16.6 µM; with UACC-257 melanoma, 13.9 µM.
`COc1cc2cc(C(=O)N3CC(CCl)c4ccc([N+](C)(C)Cc5ccccc5[N+](=O)[O-])cc43)[nH]c2c(OC)c1OC` (stereo not given): the TGI in the assay on CAKI-1 renal was 14.5 µM; in the assay with HOP-92 NSCLC, above 29.8 µM; in the assay with HOP-62 NSCLC, 18.1 µM; with LOX IMVI melanoma, 17.1 µM; with EKVX NSCLC, 21.3 µM; with UO-31 renal it was 5.17 µM. The TGI is 34.2 µM with NCI/ADR-RES ovarian; above 100 µM in the assay on HCT-116 colon; above 100 µM in the assay on A549 NSCLC; 6.29 µM in the assay on BT-549 breast; above 25.5 µM in the assay with OVCAR-8 ovarian; 30.1 µM in the assay with SK-OV-3 ovarian. Moreover, the TGI in the assay on T-47D breast was found to be 12.5 µM; in the assay with A498 renal, 1.37 µM; in the assay on SF-539 CNS, 5.38 µM; with SNB-75 CNS, 24.7 µM; with RPMI-8226 leukemia it was 5.3 µM; in the assay with HCC-2998 colon it was 9 µM. In addition, the TGI in the assay with COLO 205 colon stood at 14.9 µM; with UACC-257 melanoma, 6.75 µM.
Consider `CC(C)(C)OC(=O)CCCCCNC(=O)CCCCCNC(=O)CCC(CN(CC(=O)OCc1ccccc1)CC(=O)OCc1ccccc1)N(CC(=O)OCc1ccccc1)CC(=O)OCc1ccccc1` (stereo not given), for which the TGI in the assay on CAKI-1 renal, with HOP-92 NSCLC, in the assay on HOP-62 NSCLC, with LOX IMVI melanoma, in the assay with EKVX NSCLC and in the assay on UO-31 renal was above 100 µM throughout. Also, the TGI in the assay with NCI/ADR-RES ovarian, in the assay with HCT-116 colon, with A549 NSCLC, in the assay with BT-549 breast, in the assay on OVCAR-8 ovarian and in the assay on SK-OV-3 ovarian was above 100 µM throughout. For the same compound, the TGI is above 100 µM with T-47D breast; above 100 µM with A498 renal; above 100 µM in the assay with SF-539 CNS; 81.9 µM in the assay on SNB-75 CNS; above 100 µM in the assay with RPMI-8226 leukemia; above 100 µM with HCC-2998 colon. In addition, the TGI in the assay on COLO 205 colon and with UACC-257 melanoma was above 100 µM throughout.
As for `O=C1Cc2cn[nH]c2-c2ccccc2N1`, the TGI with CAKI-1 renal was above 35.2 µM; with HOP-92 NSCLC it was above 30.7 µM; with HOP-62 NSCLC, above 100 µM; in the assay with LOX IMVI melanoma it was 33.6 µM; in the assay with EKVX NSCLC, 95.4 µM; with UO-31 renal, above 100 µM. For the same compound, the TGI with NCI/ADR-RES ovarian was above 100 µM; in the assay with HCT-116 colon, above 83.5 µM; in the assay on A549 NSCLC, above 64.2 µM; in the assay on BT-549 breast it was 61.5 µM; in the assay with OVCAR-8 ovarian it was above 100 µM; with SK-OV-3 ovarian, above 100 µM. Further, the TGI in the assay with T-47D breast was above 100 µM; with A498 renal, above 100 µM; with SF-539 CNS it was above 100 µM; in the assay on SNB-75 CNS, above 100 µM; in the assay with RPMI-8226 leukemia it was 66.1 µM; in the assay with HCC-2998 colon, 67.3 µM. Further, the results for the TGI in the assay with COLO 205 colon and in the assay with UACC-257 melanoma were above 64 µM and above 60.5 µM, respectively.
For `COc1ccc(COCC[C@H](C)OC2OC(CO)C(O)C(O)C2O)cc1` (stereo not given in full), the TGI in the assay on CAKI-1 renal, with HOP-92 NSCLC, with HOP-62 NSCLC, with LOX IMVI melanoma, in the assay with EKVX NSCLC and with UO-31 renal was above 100 µM each time. Besides, the TGI in the assay with NCI/ADR-RES ovarian, in the assay with HCT-116 colon, with A549 NSCLC, with BT-549 breast, with OVCAR-8 ovarian and in the assay with SK-OV-3 ovarian was above 100 µM each time. Besides, the TGI in the assay on T-47D breast, with A498 renal, in the assay with SF-539 CNS, in the assay with SNB-75 CNS, in the assay with RPMI-8226 leukemia and with HCC-2998 colon was above 100 µM throughout. The TGI in the assay on COLO 205 colon and in the assay on UACC-257 melanoma was above 100 µM each time.
As to `O=CNc1ccccc1OCCOc1ccccc1NC=O`, the TGI with CAKI-1 renal, in the assay with HOP-92 NSCLC, in the assay on HOP-62 NSCLC, in the assay with LOX IMVI melanoma, in the assay with EKVX NSCLC and in the assay with UO-31 renal was above 100 µM each time. For the same compound, the TGI in the assay on NCI/ADR-RES ovarian, in the assay on HCT-116 colon, with A549 NSCLC, with BT-549 breast, with OVCAR-8 ovarian and in the assay with SK-OV-3 ovarian was above 100 µM in each case. The TGI in the assay with T-47D breast, in the assay with A498 renal, in the assay on SF-539 CNS, in the assay on SNB-75 CNS, in the assay with RPMI-8226 leukemia and in the assay with HCC-2998 colon was above 100 µM throughout. Moreover, the TGI in the assay with COLO 205 colon and with UACC-257 melanoma was above 100 µM in each case.
Regarding `CC(C)(C)OC(=O)N1CCCC1C(=O)NC(c1ccccc1)c1ccccc1` (stereo not given), the TGI in the assay with CAKI-1 renal, in the assay with HOP-92 NSCLC, in the assay on HOP-62 NSCLC, with LOX IMVI melanoma, in the assay on EKVX NSCLC and in the assay with UO-31 renal was above 100 µM throughout. The TGI in the assay on NCI/ADR-RES ovarian, in the assay on HCT-116 colon, with A549 NSCLC, with BT-549 breast, in the assay with OVCAR-8 ovarian and in the assay on SK-OV-3 ovarian was above 100 µM each time. Besides, the TGI with T-47D breast, in the assay on A498 renal, with SF-539 CNS, in the assay on SNB-75 CNS, in the assay on RPMI-8226 leukemia and in the assay with HCC-2998 colon was above 100 µM each time. Also, the TGI in the assay on COLO 205 colon and in the assay with UACC-257 melanoma was above 100 µM each time.
Take `Cc1[nH]c(-c2ccccc2)c2nc(N(C)C)oc(=O)c12`: the TGI in the assay on CAKI-1 renal, in the assay on HOP-92 NSCLC, with HOP-62 NSCLC, with LOX IMVI melanoma, with EKVX NSCLC and in the assay on UO-31 renal was above 100 µM throughout. Moreover, the TGI with NCI/ADR-RES ovarian, in the assay on HCT-116 colon, in the assay with A549 NSCLC, with BT-549 breast, with OVCAR-8 ovarian and in the assay on SK-OV-3 ovarian was above 100 µM throughout. The TGI in the assay with T-47D breast, in the assay on A498 renal, in the assay on SF-539 CNS, in the assay with SNB-75 CNS, in the assay on RPMI-8226 leukemia and with HCC-2998 colon was above 100 µM each time. Besides, the TGI with COLO 205 colon and in the assay with UACC-257 melanoma was above 100 µM in each case.
